Experimental data reported in patent US10798946B2, “Method for managing flea beetles of the family chrysomelidae in Brassica crops” (BASF Agrochemical Products B.V., priority 2015, dated 2020).

Test system: Psylliodes chrysocephala (PSYICH; rape flea beetle)
Assay: Field trial: flea beetle attack on winter oilseed rape, counted as crop plants with eating damage
Format: in vivo
Protocol: A field trial to investigate methods for flea beetle management in Brassica crops was carried out under the regime of Good Experimental Practice (GEP) in Germany, federal state of Niedersachsen. The trial was set up in a 3 time replicated, one factorial randomized block design. The plot size was 45 m^2.
The winter oilseed rape (WOSR) variety used in the trial was the commercial hybrid “Edimax CL®” carrying a tolerance against imidazolinone herbicides. As trap plant Sinapis alba, variety “Ascot” was used.
All WOSR seeds had been commercially treated with the product Aatiram65®, containing the active ingredient Thiram (650 g/I), at a dose rate of […] seeds to protect the seed from emergence diseases.
Only the WOSR seeds for the respective plots had been treated with 160 ml/100 kg seeds with a flowable concentrate containing 8% of Bacillus amyloliquefaciens ssp. plantarum MBI600 as flea beetle repellant.
For the trap plants, no seed treatment was applied.
At the day of seeding, the trap plants were seeded first in the respective plots at a seed rate of 3.6 k/ha using a plot seeder. Afterwards, the plots with WOSR treated with Aatiram65® only were seeded, then WOSR treated on top with Bacillus amyloliquefaciens ssp. plantarum MBI600. Thus, any contamination/mixing of the different seeds and seed treatments was prevented. In both cases, a WOSR seeding rate of 50 seeds per m^2 was targeted.
In order to control any undesired vegetation besides the crop and the trap plants, the commercial broad spectrum herbicide Butisan Top® was applied at a dose rate of 2.0 I/ha pre-emergence of the crop and trap plants.
After the crop was mature enough to overcome flea beetle damage (2-4 true leaf stage (BBCH 12-14)), the plots were sprayed with Pulsar 40 (active ingredient Imazamox) at a dose rate of 0.875 I/ha.
The intensity of the flea beetle attack was evaluated 26 days after seeding (DAS) and 33 DAS by counting the number of crop plants with eating damage. On the first assessment, the crop plants were in 1-2 true leaf stage (BBCH 11-12), at the later assessment, the crop plants had developed to the 1-4 true leaf stage (BBCH 11-14).

## Bacillus amyloliquefaciens ssp. plantarum MBI600 [MBI 600]
Field trial, both days of assessment
  infestation / number of crop plants attacked by flea beetles (in words): did not reduce the infestation
Number of crop plants with eating damage, 26 days after seeding, WOSR Edimax CL, BBCH 11-12, MBI600 seed treatment 160 ml/100 kg seeds of 8% flowable concentrate
  plants with eating damage (26 DAS): 34
Number of crop plants with eating damage, 33 days after seeding, WOSR Edimax CL, BBCH 11-14, MBI600 seed treatment 160 ml/100 kg seeds of 8% flowable concentrate
  plants with eating damage (33 DAS): 34
Relative to treatment 1 (none) = 100, 26 days after seeding
  plants with eating damage (26 DAS), rel.: 103
Relative to treatment 1 (none) = 100, 33 days after seeding
  plants with eating damage (33 DAS), rel.: 91
